From patent US20220363662A1, “COMPOUNDS AS LXR AGONISTS” (Integral Biosciences Privated Limited, priority 2021, published 2022)

Biological target: T1, LXR beta (Homo sapiens, UniProt P55055)
T1 construct: 5 μL of 4×LXR beta-LBD was added to each well (final concentration 5 nM); purchased Thermofisher PV4658
T1 sequence (P55055 222-460 limits assumed): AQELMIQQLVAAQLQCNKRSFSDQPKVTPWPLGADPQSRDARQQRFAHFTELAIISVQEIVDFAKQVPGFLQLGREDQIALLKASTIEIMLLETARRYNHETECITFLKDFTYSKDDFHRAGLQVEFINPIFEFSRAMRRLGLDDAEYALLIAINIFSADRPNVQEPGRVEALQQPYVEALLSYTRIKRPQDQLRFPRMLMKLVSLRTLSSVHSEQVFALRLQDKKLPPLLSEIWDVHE
Test: LXR beta agonist assay (Lanthascreen TR-FRET)
Assay type: biochemical
Conditions: LXR beta-LBD 5 nM, read-out: LXR-β EC50
Method: EC50 values of compounds against LXR beta were determined at Integral BioSciences (India) using Lanthascreen TR-FRET (Thermofisher, Cat #PV4658). Assay was performed in a 20 μL final volume in a Black 384-well plate (Corning, Cat #4511). Dose response curve for the compounds were prepared in duplicates with starting concentration at 30 μM and a three-fold titration was performed. The reaction buffer consisted of TR-FRET Coregulator Buffer G. To the compound dilution, 5 μL of 4×LXR beta-LBD was added to each well (final concentration 5 nM). An equal volume (5 μL) containing 4×Fl-D22/Tb-anti GST antibody (final concentration 100 nM/10 nM) was added to initiate the enzyme reaction and the reaction was incubated for 60 min at 22° C. after which the plates were read using BioTek Plate reader for TR-FRET every hour up to 4 hours.
Analysis was done using the standard curve by non-linear regression, variable slope inhibitor curve fits (Graph-Pad Prism) and EC50's of compounds were determined wherever possible.

| Compound | EC50 [µM] |
| --- | --- |
| COc1cccc(C2(C(=O)N3CCC(N4CC(Nc5ccc(C(=O)N(C)C)c(Cl)c5)C4)CC3)CCCC2)c1 [Compound 1.67, 2-chloro-4-(1-(1-(1-(3-methoxyphenyl)cyclopentanecarbonyl)piperidin-4-yl)azetidin-3-ylamino)-N,N-dimethylbenzamide] | 0.995 |
| CN(C)C(=O)c1ccc(-c2nnc(C3=CCN(C(=O)C(O)(c4ccccc4)C(F)(F)F)CC3)s2)cc1Cl (stereo not shown) [Compound 1.68, 2-chloro-N,N-dimethyl-4-(5-(1-(3,3,3-trifluoro-2-hydroxy-2-phenylpropanoyl)-1,2,3,6-tetrahydropyridin-4-yl)-1,3,4-thiadiazol-2-yl)benzamide] | 4.58 |
| CN(C)C(=O)c1ccc(NC2CN(C3CCN(C(=O)C45CC(C4)C5)CC3)C2)cc1Cl [Compound 1.69, 4-(1-(1-(bicyclo[1.1.1]pentane-1-carbonyl)piperidin-4-yl)azetidin-3-ylamino)-2-chloro-N,N-dimethylbenzamide] | 3.79 |
| CN(C)C(=O)c1ccc(-c2nnc(N3CCN(S(=O)(=O)c4ccccc4Cl)CC3)s2)cc1F [Compound 1.70, 4-(5-(4-(2-chlorophenylsulfonyl)piperazin-1-yl)-1,3,4-thiadiazol-2-yl)-2-fluoro-N,N-dimethylbenzamide] | 9.77 |
| CN(C)C(=O)c1ccc(C2CCN(C3CC4(C3)CN(C(=O)C(O)(c3ccccc3)C(F)(F)F)C4)CC2)cc1Cl (stereo not shown) [Compound 1.80, 2-chloro-N,N-dimethyl-4-(1-(2-(3,3,3-trifluoro-2-hydroxy-2-phenylpropanoyl)-2-azaspiro[3.3]heptan-6-yl)piperidin-4-yl)benzamide] | 4.33 |
| CN(C)C(=O)c1ccc(NC2CN(C3CC4(C3)CN(C(=O)[C@](O)(c3ccccc3)C(F)(F)F)C4)C2)cc1Cl [Compound 1.81, 2-chloro-N,N-dimethyl-4-(1-(2-((R)-3,3,3-trifluoro-2-hydroxy-2-phenylpropanoyl)-2-azaspiro[3.3]heptan-6-yl)azetidin-3-ylamino)benzamide] | 4.22 |
| CC1CN(S(=O)(=O)c2ccccc2Cl)CCN1c1nnc(-c2ccc(C(=O)N(C)C)c(F)c2)s1 (stereo not shown) [Compound 1.82, 4-(5-(4-(2-chlorophenylsulfonyl)-2-methylpiperazin-1-yl)-1,3,4-thiadiazol-2-yl)-2-fluoro-N,N-dimethylbenzamide] | 9.02 |
| CC1CN(c2nnc(-c3ccc(C(=O)N(C)C)c(Cl)c3)s2)CCN1S(=O)(=O)c1ccccc1Cl (stereo not shown) [Compound 1.83, 2-chloro-4-(5-(4-(2-chlorophenylsulfonyl)-3-methylpiperazin-1-yl)-1,3,4-thiadiazol-2-yl)-N,N-dimethylbenzamide] | 8.46 |
| CN(C)C(=O)c1ccc(NC2CN(C3CCN(C(=O)C(O)(c4ccccc4)C(F)(F)F)CC3)C2)cc1F (stereo not shown) [Compound 1.85, 2-fluoro-N,N-dimethyl-4-((1-(1-(3,3,3-trifluoro-2-hydroxy-2-phenylpropanoyl)piperidin-4-yl)azetidin-3-yl)amino)benzamide] | > 30 |
| O=C(c1ccc(NC2CN(C3CCN(C(=O)C(O)(c4ccccc4)C(F)(F)F)CC3)C2)cc1Cl)N1CCCC1 (stereo not shown) [Compound 1.88, 1-(4-(3-(3-chloro-4-(pyrrolidine-1-carbonyl)phenylamino)azetidin-1-yl)piperidin-1-yl)-3,3,3-trifluoro-2-hydroxy-2-phenylpropan-1-one] | > 30 |
| O=C(c1ccc(NC2CN(C3CCN(C(=O)C(O)(c4ccccc4)C(F)(F)F)CC3)C2)cc1Cl)N1CCCCC1 (stereo not shown) [Compound 1.89, 1-(4-(3-(3-chloro-4-(piperidine-1-carbonyl)phenylamino)azetidin-1-yl)piperidin-1-yl)-3,3,3-trifluoro-2-hydroxy-2-phenylpropan-1-one] | > 30 |
| CC1CN(C(=O)c2ccc(NC3CN(C4CCN(C(=O)C(O)(c5ccccc5)C(F)(F)F)CC4)C3)cc2Cl)C1 (stereo not shown) [Compound 1.94, 1-(4-(3-((3-chloro-4-(3-methylazetidine-1-carbonyl)phenyl)amino)azetidin-1-yl)piperidin-1-yl)-3,3,3-trifluoro-2-hydroxy-2-phenylpropan-1-one] | 6.79 |
| O=C(NCC(F)F)c1ccc(NC2CN(C3CCN(C(=O)C(O)(c4ccccc4)C(F)(F)F)CC3)C2)cc1Cl (stereo not shown) [Compound 1.98, 2-chloro-N-(2,2-difluoroethyl)-4-((1-(1-(3,3,3-trifluoro-2-hydroxy-2-phenylpropanoyl)piperidin-4-yl)azetidin-3-yl)amino)benzamide] | 9.8 |
| CN(C)C(=O)c1ccc(NC2CN(C3CCN(C(=O)C(O)(C4CCCCC4)C(F)(F)F)CC3)C2)cc1Cl (stereo not shown) [Compound 1.101, 2-chloro-4-((1-(1-(2-cyclohexyl-3,3,3-trifluoro-2-hydroxypropanoyl)piperidin-4-yl)azetidin-3-yl)amino)-N,N-dimethylbenzamide] | 4.85 |
| O=C(c1ccc(NC2CN(C3CCN(C(=O)C(O)(c4ccccc4)C(F)(F)F)CC3)C2)cc1Cl)N1CCN(C(=O)C2CCC2)CC1 (stereo not shown) [Compound 1.102, 1-(4-(3-((3-chloro-4-(4-(cyclobutanecarbonyl)piperazine-1-carbonyl)phenyl)amino)azetidin-1-yl)piperidin-1-yl)-3,3,3-trifluoro-2-hydroxy-2-phenylpropan-1-one] | 3.18 |
| CC(=O)N1CCN(C(=O)c2ccc(NC3CN(C4CCN(C(=O)C(O)(c5ccccc5)C(F)(F)F)CC4)C3)cc2Cl)CC1 (stereo not shown) [Compound 1.103, 1-(4-(3-((4-(4-acetylpiperazine-1-carbonyl)-3-chlorophenyl)amino)azetidin-1-yl)piperidin-1-yl)-3,3,3-trifluoro-2-hydroxy-2-phenylpropan-1-one] | > 30 |
| O=C(c1ccc(NC2CN(C3CCN(C(=O)C(O)(c4ccccc4)C(F)(F)F)CC3)C2)cc1Cl)N1CC(F)(F)C1 (stereo not shown) [Compound 1.110, 1-(4-(3-(3-chloro-4-(3,3-difluoroazetidine-1-carbonyl)phenylamino)azetidin-1-yl)piperidin-1-yl)-3,3,3-trifluoro-2-hydroxy-2-phenylpropan-1-one] | 5.71 |
| COCCCN(C)C(=O)c1ccc(N2CCN(C3CC4(C3)CN(C(=O)C(O)(c3ccccc3)C(F)(F)F)C4)CC2)cc1Cl (stereo not shown) [Compound 1.119, 2-chloro-N-(3-methoxypropyl)-N-methyl-4-(4-(2-(3,3,3-trifluoro-2-hydroxy-2-phenylpropanoyl)-2-azaspiro[3.3]heptan-6-yl)piperazin-1-yl)benzamide] | 2.85 |
| CN(C)C(=O)c1c(Cl)cc(NC2CN(C3CCN(C(=O)[C@](O)(c4ccccc4)C(F)(F)F)CC3)C2)cc1Cl [Compound 1.122, (R)-2,6-dichloro-N,N-dimethyl-4-(1-(1-(3,3,3-trifluoro-2-hydroxy-2-phenylpropanoyl)piperidin-4-yl)azetidin-3-ylamino)benzamide] | 4.26 |
| CN(C)C(=O)c1c(Cl)cc(NC2CN(C3CCN(C(=O)[C@@](O)(c4ccccc4)C(F)(F)F)CC3)C2)cc1Cl [Compound 1.123, (S)-2,6-dichloro-N,N-dimethyl-4-(1-(1-(3,3,3-trifluoro-2-hydroxy-2-phenylpropanoyl)piperidin-4-yl)azetidin-3-ylamino)benzamide] | > 27 |
| COCCCN(C)C(=O)c1ccc(NC2CN(C3CCN(C(=O)[C@](O)(c4ccccc4)C(F)(F)F)CC3)C2)cc1Cl [Compound 1.124, (R)-2-chloro-N-(3-methoxypropyl)-N-methyl-4-(1-(1-(3,3,3-trifluoro-2-hydroxy-2-phenylpropanoyl)piperidin-4-yl)azetidin-3-ylamino)benzamide] | 1.57 |
| CN(CCCC(F)(F)F)C(=O)c1ccc(NC2CN(C3CCN(C(=O)[C@](O)(c4ccccc4)C(F)(F)F)CC3)C2)cc1Cl [Compound 1.125, (R)-2-chloro-N-methyl-4-(1-(1-(3,3,3-trifluoro-2-hydroxy-2-phenylpropanoyl)piperidin-4-yl)azetidin-3-ylamino)-N-(4,4,4-trifluorobutyl)benzamide] | 3.98 |
| CN(C)C(=O)c1c(F)cc(N2CCN(C3CC4(C3)CN(C(=O)C(O)(c3ccccc3)C(F)(F)F)C4)CC2)cc1F (stereo not shown) [Compound 1.126, 2,6-difluoro-N,N-dimethyl-4-(4-(2-(3,3,3-trifluoro-2-hydroxy-2-phenylpropanoyl)-2-azaspiro[3.3]heptan-6-yl)piperazin-1-yl)benzamide] | 1.58 |
| CN(C)C(=O)c1ccc(C2=CCN(C3CC4(C3)CN(C(=O)C(O)(c3ccccc3)C(F)(F)F)C4)CC2)cc1Cl (stereo not shown) [Compound 1.127, 2-chloro-N,N-dimethyl-4-(1-(2-(3,3,3-trifluoro-2-hydroxy-2-phenylpropanoyl)-2-azaspiro[3.3]heptan-6-yl)-1,2,3,6-tetrahydropyridin-4-yl)benzamide] | 3.95 |
| CN(C)C(=O)c1cc([N+](=O)[O-])c(NC2CN(C3CCN(C(=O)[C@](O)(c4ccccc4)C(F)(F)F)CC3)C2)cc1Cl [Compound 1.129, (R)-2-chloro-N,N-dimethyl-5-nitro-4-(1-(1-(3,3,3-trifluoro-2-hydroxy-2-phenylpropanoyl)piperidin-4-yl)azetidin-3-ylamino)benzamide] | 3.47 |
